In ChEMBL document CHEMBL3525917, “Species difference in the mechanism of nonlinear pharmacokinetics of E2074, a novel sodium channel inhibitor, in rats, dogs, and monkeys” (Drug Metab Dispos, 2013):

How the values were obtained:
[1] = Tmax in cynomolgus monkey at 10 mg/kg, po; type: ADME, organism-based, Macaca fascicularis; parameters: dose 10 mg/kg, route oral; conditions: in vivo
[2] = Oral bioavailability in Sprague-Dawley rat at 3 mg/kg; type: ADME, organism-based; conditions: in vivo
[3] = Ratio of drug level in blood to plasma in cynomolgus monkey at 0.25 uM after 10 mins by equilibrium dialysis technique; type: ADME, Macaca fascicularis; conditions: blood and plasma
[4] = Half life in cynomolgus monkey at 10 mg/kg, po in presence of ketoconazole; type: ADME, organism-based, Macaca fascicularis; parameters: dose 10 mg/kg, route oral; conditions: in vivo
[5] = Cmax in double-cannulated Sprague-Dawley rat portal vein at 10 mg/kg, po; type: ADME, organism-based; parameters: dose 10 mg/kg, route oral
[6] = Tmax in cynomolgus monkey at 10 mg/kg, po in presence of ketoconazole; type: ADME, organism-based, Macaca fascicularis; parameters: dose 10 mg/kg, route oral; conditions: in vivo
[7] = Cmax in beagle dog at 10 mg/kg, po; type: ADME, organism-based, Canis lupus familiaris; parameters: dose 10 mg/kg, route oral; conditions: in vivo
[8] = Tmax in wild-type mouse at 3 mg/kg, po; type: ADME, organism-based; parameters: dose 3 mg/kg, route oral; conditions: in vivo
[9] = Half life in beagle dog at 1 mg/kg, iv; type: ADME, organism-based, Canis lupus familiaris; parameters: dose 1 mg/kg, route intravenous; conditions: in vivo
[10] = Solubility of the compound in phosphate buffered saline at pH 7 to 7.2; type: physicochemical
[11] = Fraction unbound in Sprague-Dawley rat plasma at 0.25 uM by equilibrium dialysis technique; type: ADME, cell-free
[12] = Oral bioavailability in cynomolgus monkey at 10 mg/kg; type: ADME, organism-based, Macaca fascicularis; conditions: in vivo
[13] = Half life in cynomolgus monkey at 1 mg/kg, iv; type: ADME, organism-based, Macaca fascicularis; parameters: dose 1 mg/kg, route intravenous; conditions: in vivo
[14] = biological target: MDR1A (ABCB1, P-glycoprotein) (Mus musculus, UniProt P21447); test: Activity of mouse MDR1A expressed in pig LLC-PK1 cells assessed as permeability from basolateral to apical side at 1 uM after 2 hrs; type: ADME, cell-based; conditions: read-out: permeability
[15] = AUC in beagle dog at 1 mg/kg, iv; type: ADME, organism-based, Canis lupus familiaris; parameters: dose 1 mg/kg, route intravenous; conditions: plasma
[16] = Half life in cynomolgus monkey at 1 mg/kg, iv in presence of ketoconazole; type: ADME, organism-based, Macaca fascicularis; parameters: dose 1 mg/kg, route intravenous; conditions: in vivo
[17] = Fraction unbound in Sprague-Dawley rat liver microsomes at 0.25 uM by equilibrium dialysis technique; type: ADME
[18] = Volume of distribution at steady state in cynomolgus monkey at 1 mg/kg, iv; type: ADME, organism-based, Macaca fascicularis; parameters: dose 1 mg/kg, route intravenous; conditions: in vivo, read-out: Vdss
[19] = Clearance in beagle dog at 1 mg/kg, iv; type: ADME, organism-based, Canis lupus familiaris; parameters: dose 1 mg/kg, route intravenous; conditions: in vivo
[20] = Half life in cynomolgus monkey at 10 mg/kg, po; type: ADME, organism-based, Macaca fascicularis; parameters: dose 10 mg/kg, route oral; conditions: in vivo
[21] = Cmax in wild-type mouse at 3 mg/kg, po; type: ADME, organism-based; parameters: dose 3 mg/kg, route oral; conditions: in vivo
[22] = Half life in Sprague-Dawley rat at 10 mg/kg, po; type: ADME, organism-based; parameters: dose 10 mg/kg, route oral; conditions: in vivo
[23] = Ratio of drug level in brain to plasma in wild-type mouse at 3 mg/kg, po; type: ADME, organism-based; parameters: dose 3 mg/kg, route oral; conditions: brain and plasma
[24] = Tmax in MDR1A/1B knock-out mouse at 3 mg/kg, po; type: ADME, organism-based; parameters: dose 3 mg/kg, route oral; conditions: in vivo
[25] = Drug metabolism in Sprague-Dawley rat intestinal microsomes; type: ADME, Intestine, Microsome
[26] = Blood clearance in beagle dog; type: ADME, organism-based, Canis lupus familiaris
[27] = Cmax in double-cannulated Sprague-Dawley rat jugular vein at 10 mg/kg, po; type: ADME, organism-based; parameters: dose 10 mg/kg, route oral
[28] = Cmax in MDR1A/1B knock-out mouse at 3 mg/kg, po; type: ADME, organism-based; parameters: dose 3 mg/kg, route oral; conditions: in vivo
[29] = Volume of distribution at steady state in beagle dog at 1 mg/kg, iv; type: ADME, organism-based, Canis lupus familiaris; parameters: dose 1 mg/kg, route intravenous; conditions: in vivo, read-out: Vdss
[30] = Cmax in Sprague-Dawley rat at 30 mg/kg, po; type: ADME, organism-based; parameters: dose 30 mg/kg, route oral; conditions: in vivo
[31] = Fraction unbound in beagle dog plasma at 0.25 uM by equilibrium dialysis technique; type: ADME, cell-free, Canis lupus familiaris
[32] = Half life in Sprague-Dawley rat at 1 mg/kg, iv; type: ADME, organism-based; parameters: dose 1 mg/kg, route intravenous; conditions: in vivo
[33] = Tmax in Sprague-Dawley rat at 10 mg/kg, po; type: ADME, organism-based; parameters: dose 10 mg/kg, route oral; conditions: in vivo
[34] = tested on: Liver microsome; test: (§1) Drug metabolism in Sprague-Dawley rat liver microsomes after 7 mins by Michaelis-Menten plot analysis; type: ADME; conditions: microsomes, 7 min
[35] = as §1; type: ADME; conditions: Sprague-Dawley, liver microsomes
[36] = Volume of distribution at steady state in Sprague-Dawley rat at 1 mg/kg, iv; type: ADME, organism-based; parameters: dose 1 mg/kg, route intravenous; conditions: in vivo, read-out: Vdss
[37] = Tmax in cynomolgus monkey at 3 mg/kg, po in presence of ketoconazole; type: ADME, organism-based, Macaca fascicularis; parameters: dose 3 mg/kg, route oral; conditions: in vivo
[38] = Oral bioavailability in beagle dog at 3 mg/kg; type: ADME, organism-based, Canis lupus familiaris; conditions: in vivo
[39] = tested on: Cynomolgus monkey; test: Ratio of dose normalized AUC in cynomolgus monkey at 3 mg/kg, po in presence of ketoconazole to dose normalized AUC in cynomolgus monkey at 3 mg/kg, po; type: ADME, organism-based, Macaca fascicularis; conditions: in vivo
[40] = Cmax in cynomolgus monkey at 10 mg/kg, po in presence of ketoconazole; type: ADME, organism-based, Macaca fascicularis; parameters: dose 10 mg/kg, route oral; conditions: in vivo
[41] = Half life in cynomolgus monkey at 3 mg/kg, po; type: ADME, organism-based, Macaca fascicularis; parameters: dose 3 mg/kg, route oral; conditions: in vivo
[42] = Tmax in Sprague-Dawley rat at 30 mg/kg, po; type: ADME, organism-based; parameters: dose 30 mg/kg, route oral; conditions: in vivo
[43] = Fraction unbound in cynomolgus monkey liver microsomes at 0.25 uM by equilibrium dialysis technique; type: ADME, Macaca fascicularis
[44] = Ratio of drug level in brain to plasma in MDR1A/1B knock-out mouse at 3 mg/kg, po; type: ADME, organism-based; parameters: dose 3 mg/kg, route oral; conditions: brain and plasma
[45] = Cmax in Sprague-Dawley rat at 10 mg/kg, po; type: ADME, organism-based; parameters: dose 10 mg/kg, route oral; conditions: in vivo
[46] = AUC in beagle dog at 10 mg/kg, po; type: ADME, organism-based, Canis lupus familiaris; parameters: dose 10 mg/kg, route oral; conditions: plasma
[47] = Fraction unbound in cynomolgus monkey plasma at 0.25 uM by equilibrium dialysis technique; type: ADME, cell-free, Macaca fascicularis
[48] = tested on: Cynomolgus monkey; test: Ratio of dose normalized Cmax in cynomolgus monkey at 3 mg/kg, po in presence of ketoconazole to dose normalized Cmax in cynomolgus monkey at 3 mg/kg, po; type: ADME, organism-based, Macaca fascicularis; conditions: in vivo
[49] = Ratio of drug level in blood to plasma in Sprague-Dawley rat at 0.25 uM after 10 mins by equilibrium dialysis technique; type: ADME; conditions: blood and plasma
[50] = Cmax in cynomolgus monkey at 3 mg/kg, po; type: ADME, organism-based, Macaca fascicularis; parameters: dose 3 mg/kg, route oral; conditions: in vivo
[51] = Half life in Sprague-Dawley rat at 30 mg/kg, po; type: ADME, organism-based; parameters: dose 30 mg/kg, route oral; conditions: in vivo
[52] = Tmax in Sprague-Dawley rat at 3 mg/kg, po; type: ADME, organism-based; parameters: dose 3 mg/kg, route oral; conditions: in vivo
[53] = Tmax in beagle dog at 10 mg/kg, po; type: ADME, organism-based, Canis lupus familiaris; parameters: dose 10 mg/kg, route oral; conditions: in vivo
[54] = organism: Canis familiaris; test: Hepatic blood clearance in beagle dog; type: ADME, organism-based, Canis lupus familiaris; conditions: in vivo

Chain of MDR1A (ABCB1, P-glycoprotein) (P21447 whole entry): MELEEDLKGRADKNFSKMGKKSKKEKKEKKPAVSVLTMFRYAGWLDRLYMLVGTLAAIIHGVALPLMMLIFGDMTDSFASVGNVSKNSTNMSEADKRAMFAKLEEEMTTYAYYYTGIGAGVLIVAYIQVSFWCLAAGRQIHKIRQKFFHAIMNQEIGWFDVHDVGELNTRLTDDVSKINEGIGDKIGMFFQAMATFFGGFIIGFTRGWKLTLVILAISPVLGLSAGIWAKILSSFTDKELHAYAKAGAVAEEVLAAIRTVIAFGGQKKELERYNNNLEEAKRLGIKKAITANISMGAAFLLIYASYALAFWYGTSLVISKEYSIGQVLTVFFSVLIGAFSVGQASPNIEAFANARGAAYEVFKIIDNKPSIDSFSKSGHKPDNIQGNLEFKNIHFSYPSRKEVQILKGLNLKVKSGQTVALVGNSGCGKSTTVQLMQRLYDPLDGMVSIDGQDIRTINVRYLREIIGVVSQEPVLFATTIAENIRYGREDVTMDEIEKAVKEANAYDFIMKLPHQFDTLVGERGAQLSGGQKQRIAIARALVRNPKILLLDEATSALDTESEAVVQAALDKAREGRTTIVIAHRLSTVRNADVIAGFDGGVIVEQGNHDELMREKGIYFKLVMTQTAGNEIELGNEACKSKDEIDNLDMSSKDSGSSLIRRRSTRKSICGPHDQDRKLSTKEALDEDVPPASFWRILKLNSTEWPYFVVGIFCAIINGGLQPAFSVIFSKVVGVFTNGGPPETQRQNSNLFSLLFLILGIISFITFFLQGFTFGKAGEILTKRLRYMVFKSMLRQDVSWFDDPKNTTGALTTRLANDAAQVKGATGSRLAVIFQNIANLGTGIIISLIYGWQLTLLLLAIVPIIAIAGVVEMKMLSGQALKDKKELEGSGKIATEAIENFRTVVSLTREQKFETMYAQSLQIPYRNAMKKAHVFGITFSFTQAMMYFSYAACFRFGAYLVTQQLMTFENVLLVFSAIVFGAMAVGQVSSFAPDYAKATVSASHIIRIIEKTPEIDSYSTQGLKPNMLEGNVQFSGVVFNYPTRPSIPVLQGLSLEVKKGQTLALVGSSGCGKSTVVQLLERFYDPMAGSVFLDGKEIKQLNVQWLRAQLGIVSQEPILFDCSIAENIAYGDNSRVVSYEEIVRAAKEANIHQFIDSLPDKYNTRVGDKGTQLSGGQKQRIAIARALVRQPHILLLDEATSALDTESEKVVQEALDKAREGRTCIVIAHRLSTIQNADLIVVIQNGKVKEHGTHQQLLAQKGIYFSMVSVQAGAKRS

In the case of Cc1nn(C[C@H](F)CN2C3CCC2CC(OCc2cccc(F)c2)C3)c(=O)n1C (some centres undefined), the Tmax [1] is reported as 1 h, the bioavailability [2] is reported as 2.6% and the blood plasma ratio at 10 min, 0.25 µM [3] is reported as 1.01. The half-life [4] was 164 min, the Cmax [5] was 10600 ng/mL and the Tmax [6] was 2 h. It also gave a Cmax [7] of 1070 ng/mL, a Tmax [8] of 30 min and a half-life [9] of 62.4 min. For the same compound, the solubility [10] was over 2000 µg/mL, the fraction unbound at 0.25 µM [11] was 0.675 and the bioavailability [12] was 20.9%. The half-life [13] was 116 min, the Papp B→A at 2 h, 1 µM [14] was 30.4 ×10⁻⁶ cm/s and the AUC [15] was 620 ng·h/mL. The half-life [16] was 118 min, the fraction unbound at 0.25 µM [17] was 1 and the Vd [18] was 3.07 L/kg. It also gave a clearance [19] of 28.3 mL/min/kg, a half-life [20] of 177 min and a Cmax [21] of 110 ng/mL. It also gave a half-life [22] of 34.2 min, a Kp [23] of 2.4 and a Tmax [24] of 15 min. The Drug metabolism [25] was “metabolite_not_detected”, the clearance [26] was 32.8 mL/min/kg and the Cmax [27] was 1040 ng/mL. For the same compound, the Cmax [28] was 100 ng/mL, the Vd [29] was 1.84 L/kg and the Cmax [30] was 1360 ng/mL. The fraction unbound at 0.25 µM [31] was 0.601, the half-life [32] was 51 min and the Tmax [33] was 15 min. For the same compound, the Vmax [34] was 1.42 nmol/min/mg, the Km at 7 min [35] was 7.23 µM and the Vd [36] was 2.54 L/kg. The Tmax [37] was 1 h, the bioavailability [38] was 1.2% and the Ratio [39] was 1. It also gave a Cmax [40] of 1520 ng/mL, a half-life [41] of 95.4 min and a Tmax [42] of 15 min. The fraction unbound at 0.25 µM [43] was 1, the Kp [44] was 8.3 and the Cmax [45] was 200 ng/mL. The AUC [46] was 2730 ng·h/mL, the fraction unbound at 0.25 µM [47] was 0.676 and the Ratio [48] was 1. For the same compound, the blood plasma ratio at 10 min, 0.25 µM [49] was 0.89, the Cmax [50] was 40 ng/mL and the half-life [51] was 81.6 min. For the same compound, the Tmax [52] was 15 min, the Tmax [53] was 30 min and the CLH [54] was 1.83 L/h/kg.
